Results published in US20240317721A1, “PYRAZOLYL DERIVATIVES AS INHIBITORS OF THE KRAS MUTANT PROTEIN” (NOVARTIS AG, priority 2021, published 2024).

Target: KRasG12C (M1-K169, biotinylated on the N-terminus) (Homo sapiens (Human), UniProt P01116, G12C)
Assay: Covalent competition assay: scintillation proximity assay (SPA) quantifying covalent modification of KRASG12C
Type: binding
Conditions: competition with radiolabeled covalent probe (Compound B/Compound A), 2 hours incubation, 10 nM KRasG12C
Procedure, shortened: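 Test compounds compete with a radiolabeled covalent probe for modification of N-terminally biotinylated KRasG12C(M1-K169):GDP, final 10 nM protein, 25 nM radio-ligand, 475 nM unlabelled ligand, 2 h with agitation in 20 mM Tris-HCl pH 7.5, 150 mM NaCl, 0.1 mM MgCl2, 0.01% Tween-20.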

IC50	Compound
351 nM	C=CC(=O)N1CC2(CC(n3nc(N4CC[C@@H](CN5CCN6C(=O)N(C)CC6C5)CC4(C)C)c(-c4c(Cl)c(Cl)cc5[nH]ncc45)c3C)C2)C1 (single isomer, unassigned) [Example 264a]
33 nM	C=CC(=O)N1CC2(CC(n3nc(N4CC[C@@H](CN5CCN6C(=O)N(C)CC6C5)CC4(C)C)c(-c4c(Cl)c(Cl)cc5[nH]ncc45)c3C)C2)C1 (single isomer, unassigned) [Example 264b]
2900 nM	C=CC(=O)N1CC2(CC(n3nc(N4CC[C@@H](CN5CCOC6CS(=O)(=O)CC65)CC4(C)C)c(-c4c(Cl)c(Cl)cc5[nH]ncc45)c3C)C2)C1 (single isomer, unassigned) [Example 265a, 1-(6-(4-(5,6-dichloro-1H-indazol-4-yl)-3-((R)-4-(((4aR*,7aS*)-6,6-dioxidohexahydro-4H-thieno[3,4-b][1,4]oxazin-4-yl)methyl)-2,2-dimethylpiperidin-1-yl)-5-methyl-1H-pyrazol-1-yl)-2-azaspiro[3.3]heptan-2-yl)prop-2-en-1-one]
9 nM	C=CC(=O)N1CC2(CC(n3nc(N4CC[C@@H](CN5CCOC6CS(=O)(=O)CC65)CC4(C)C)c(-c4c(Cl)c(Cl)cc5[nH]ncc45)c3C)C2)C1 (single isomer, unassigned) [Example 265b, 1-(6-(4-(5,6-dichloro-1H-indazol-4-yl)-3-((R)-4-(((4aR*,7aS*)-6,6-dioxidohexahydro-4H-thieno[3,4-b][1,4]oxazin-4-yl)methyl)-2,2-dimethylpiperidin-1-yl)-5-methyl-1H-pyrazol-1-yl)-2-azaspiro[3.3]heptan-2-yl)prop-2-en-1-one]
3100 nM	C=CC(=O)N1CC2(CC(n3nc(N4CC[C@@H](CN5CCOC6CS(=O)(=O)CC65)CC4(C)C)c(-c4c(Cl)c(Cl)cc5[nH]ncc45)c3C)C2)C1 (single isomer, unassigned) [Example 266a, 1-(6-(4-(5,6-dichloro-1H-indazol-4-yl)-3-((R)-4-(((4aR*,7aS*)-6,6-dioxidohexahydro-4H-thieno[3,4-b][1,4]oxazin-4-yl)methyl)-2,2-dimethylpiperidin-1-yl)-5-methyl-1H-pyrazol-1-yl)-2-azaspiro[3.3]heptan-2-yl)prop-2-en-1-one]
7 nM	C=CC(=O)N1CC2(CC(n3nc(N4CC[C@@H](CN5CCOC6CS(=O)(=O)CC65)CC4(C)C)c(-c4c(Cl)c(Cl)cc5[nH]ncc45)c3C)C2)C1 (single isomer, unassigned) [Example 266b, 1-(6-(4-(5,6-dichloro-1H-indazol-4-yl)-3-((R)-4-(((4aR*,7aS*)-6,6-dioxidohexahydro-4H-thieno[3,4-b][1,4]oxazin-4-yl)methyl)-2,2-dimethylpiperidin-1-yl)-5-methyl-1H-pyrazol-1-yl)-2-azaspiro[3.3]heptan-2-yl)prop-2-en-1-one]
720 nM	C=CC(=O)N1CC2(CC(n3nc(N4CC[C@@H](CN5CC6(CCN(C7COC7)C6)C5)CC4(C)C)c(-c4c(Cl)c(Cl)cc5[nH]ncc45)c3C)C2)C1 (single isomer, unassigned) [Example 267a]
7 nM	C=CC(=O)N1CC2(CC(n3nc(N4CC[C@@H](CN5CC6(CCN(C7COC7)C6)C5)CC4(C)C)c(-c4c(Cl)c(Cl)cc5[nH]ncc45)c3C)C2)C1 (single isomer, unassigned) [Example 267b]
789 nM	C=CC(=O)N1CC2(CC(n3nc(N4CC[C@@H](CN5CC6(CCN(C(C)=O)C6)C5)CC4(C)C)c(-c4c(Cl)c(Cl)cc5[nH]ncc45)c3C)C2)C1 (single isomer, unassigned) [Example 268a]
7 nM	C=CC(=O)N1CC2(CC(n3nc(N4CC[C@@H](CN5CC6(CCN(C(C)=O)C6)C5)CC4(C)C)c(-c4c(Cl)c(Cl)cc5[nH]ncc45)c3C)C2)C1 (single isomer, unassigned) [Example 268b]
4300 nM	C=CC(=O)N1CC2(CC(n3nc(N4CC[C@@H](CN5CCP(C)(=O)CC5)CC4(C)C)c(-c4c(Cl)c(Cl)cc5[nH]ncc45)c3C)C2)C1 (single isomer, unassigned) [Example 269a]
6 nM	C=CC(=O)N1CC2(CC(n3nc(N4CC[C@@H](CN5CCP(C)(=O)CC5)CC4(C)C)c(-c4c(Cl)c(Cl)cc5[nH]ncc45)c3C)C2)C1 (single isomer, unassigned) [Example 269b]
2400 nM	C=CC(=O)N1CC2(CC(n3nc(N4CC[C@@H](CN5CCN(C)[C@H](CO)C5)CC4(C)C)c(-c4c(Cl)c(Cl)cc5[nH]ncc45)c3C)C2)C1 (single isomer, unassigned) [Example 270a]
5 nM	C=CC(=O)N1CC2(CC(n3nc(N4CC[C@@H](CN5CCN(C)[C@H](CO)C5)CC4(C)C)c(-c4c(Cl)c(Cl)cc5[nH]ncc45)c3C)C2)C1 (single isomer, unassigned) [Example 270b]
> 5000 nM	C=CC(=O)N1CC2(CC(n3nc(N4CC[C@@H](CN5CCO[C@@H](C(N)=O)C5)CC4(C)C)c(-c4c(Cl)c(Cl)cc5[nH]ncc45)c3C)C2)C1 (single isomer, unassigned) [Example 271a]
14 nM	C=CC(=O)N1CC2(CC(n3nc(N4CC[C@@H](CN5CCO[C@@H](C(N)=O)C5)CC4(C)C)c(-c4c(Cl)c(Cl)cc5[nH]ncc45)c3C)C2)C1 (single isomer, unassigned) [Example 271b]
> 5000 nM	C=CC(=O)N1CC2(CC(n3nc(N4CC[C@@H](CN5CC6(CCCN6C6COC6)C5)CC4(C)C)c(-c4c(Cl)c(Cl)cc5[nH]ncc45)c3C)C2)C1 (single isomer, unassigned) [Example 272a]
8 nM	C=CC(=O)N1CC2(CC(n3nc(N4CC[C@@H](CN5CC6(CCCN6C6COC6)C5)CC4(C)C)c(-c4c(Cl)c(Cl)cc5[nH]ncc45)c3C)C2)C1 (single isomer, unassigned) [Example 272b]
1100 nM	C=CC(=O)N1CC2(CC(n3nc(N4CC[C@@H](CN5CC(O)C(OC)C5)CC4(C)C)c(-c4c(Cl)c(Cl)cc5[nH]ncc45)c3C)C2)C1 (single isomer, unassigned) [Example 273a, 1-(6-(4-(5,6-dichloro-1H-indazol-4-yl)-3-((R)-4-(((3S*,4S*)-3-hydroxy-4-methoxypyrrolidin-1-yl)methyl)-2,2-dimethylpiperidin-1-yl)-5-methyl-1H-pyrazol-1-yl)-2-azaspiro[3.3]heptan-2-yl)prop-2-en-1-one]
10 nM	C=CC(=O)N1CC2(CC(n3nc(N4CC[C@@H](CN5CC(O)C(OC)C5)CC4(C)C)c(-c4c(Cl)c(Cl)cc5[nH]ncc45)c3C)C2)C1 (single isomer, unassigned) [Example 273b, 1-(6-(4-(5,6-dichloro-1H-indazol-4-yl)-3-((R)-4-(((3S*,4S*)-3-hydroxy-4-methoxypyrrolidin-1-yl)methyl)-2,2-dimethylpiperidin-1-yl)-5-methyl-1H-pyrazol-1-yl)-2-azaspiro[3.3]heptan-2-yl)prop-2-en-1-one]
795 nM	C=CC(=O)N1CC2(CC(n3nc(N4CC[C@@H](CN5CC(O)C(OC)C5)CC4(C)C)c(-c4c(Cl)c(Cl)cc5[nH]ncc45)c3C)C2)C1 (single isomer, unassigned) [Example 274a, 1-(6-(4-(5,6-dichloro-1H-indazol-4-yl)-3-((R)-4-(((3S*,4S*)-3-hydroxy-4-methoxypyrrolidin-1-yl)methyl)-2,2-dimethylpiperidin-1-yl)-5-methyl-1H-pyrazol-1-yl)-2-azaspiro[3.3]heptan-2-yl)prop-2-en-1-one]
8 nM	C=CC(=O)N1CC2(CC(n3nc(N4CC[C@@H](CN5CC(O)C(OC)C5)CC4(C)C)c(-c4c(Cl)c(Cl)cc5[nH]ncc45)c3C)C2)C1 (single isomer, unassigned) [Example 274b, 1-(6-(4-(5,6-dichloro-1H-indazol-4-yl)-3-((R)-4-(((3S*,4S*)-3-hydroxy-4-methoxypyrrolidin-1-yl)methyl)-2,2-dimethylpiperidin-1-yl)-5-methyl-1H-pyrazol-1-yl)-2-azaspiro[3.3]heptan-2-yl)prop-2-en-1-one]
> 5000 nM	C=CC(=O)N1CC2(CC(n3nc(N4CC[C@@H](CN5CCN6C(=O)COC[C@@H]6C5)CC4(C)C)c(-c4c(Cl)c(Cl)cc5[nH]ncc45)c3C)C2)C1 (single isomer, unassigned) [Example 275a]
7 nM	C=CC(=O)N1CC2(CC(n3nc(N4CC[C@@H](CN5CCN6C(=O)COC[C@@H]6C5)CC4(C)C)c(-c4c(Cl)c(Cl)cc5[nH]ncc45)c3C)C2)C1 (single isomer, unassigned) [Example 275b]
3400 nM	C=CC(=O)N1CC2(CC(n3nc(N4CC[C@@H](CN5CCCC56CN(C(C)=O)C6)CC4(C)C)c(-c4c(Cl)c(Cl)cc5[nH]ncc45)c3C)C2)C1 (single isomer, unassigned) [Example 276a]
< 5 nM	C=CC(=O)N1CC2(CC(n3nc(N4CC[C@@H](CN5CCCC56CN(C(C)=O)C6)CC4(C)C)c(-c4c(Cl)c(Cl)cc5[nH]ncc45)c3C)C2)C1 (single isomer, unassigned) [Example 276b]
4500 nM	C=CC(=O)N1CC2(CC(n3nc(N4CC[C@@H](CN5CC6C5CCN6C5COC5)CC4(C)C)c(-c4c(Cl)c(Cl)cc5[nH]ncc45)c3C)C2)C1 (single isomer, unassigned) [Example 277a, 1-(6-(4-(5,6-dichloro-1H-indazol-4-yl)-3-((R)-2,2-dimethyl-4-(((1S*,5S*)-2-(oxetan-3-yl)-2,6-diazabicyclo[3.2.0]heptan-6-yl)methyl)piperidin-1-yl)-5-methyl-1H-pyrazol-1-yl)-2-azaspiro[3.3]heptan-2-yl)prop-2-en-1-one]
< 5 nM	C=CC(=O)N1CC2(CC(n3nc(N4CC[C@@H](CN5CC6C5CCN6C5COC5)CC4(C)C)c(-c4c(Cl)c(Cl)cc5[nH]ncc45)c3C)C2)C1 (single isomer, unassigned) [Example 277b, 1-(6-(4-(5,6-dichloro-1H-indazol-4-yl)-3-((R)-2,2-dimethyl-4-(((1S*,5S*)-2-(oxetan-3-yl)-2,6-diazabicyclo[3.2.0]heptan-6-yl)methyl)piperidin-1-yl)-5-methyl-1H-pyrazol-1-yl)-2-azaspiro[3.3]heptan-2-yl)prop-2-en-1-one]
